Assay results reported in ChEMBL document CHEMBL6078660, “Goondomycins A-H: Carbocyclic ansa-Polyketides from an Australian Pasture Streptomyces with Selective Activity against Dirofilaria immitis” (J Nat Prod, 2024).
Peptide text beside a SMILES is read from it. * marks the point of attachment. NHCH2CH2OH = OCCN*; For = O=C*

Tests used:
[1] = test system: Dirofilaria immitis; test: Anthelmintic activity against Dirofilaria immitis L4 stage assessed as inhibition of motility incubated for approximately 72 hrs; format: functional, organism-based
[2] = test system: Haemonchus contortus; test: Anthelmintic activity against Haemonchus contortus L1 to L3 stage assessed as larvae development incubated for 4 days; format: functional, organism-based; conditions: 96 h
[3] = test system: Staphylococcus aureus; test: Antibacterial activity against Staphylococcus aureus ATCC 25923 assessed as inhibition of bacterial growth incubated for 24 hrs by spectrophotometer based analysis; format: functional, organism-based; conditions: ATCC 25923, 24 h
[4] = test system: Dirofilaria immitis; test: Anthelmintic activity against Dirofilaria immitis microfilaria stage assessed as inhibition of motility incubated for approximately 72 hrs; format: functional, organism-based
[5] = Cytotoxicity against human NCI-H460 cells incubated for 24 hrs by MTT assay; format: toxicity, cell-based
[6] = test system: Escherichia coli; test: Antibacterial activity against Escherichia coli ATCC 11775 assessed as inhibition of bacterial growth incubated for 24 hrs by spectrophotometer based analysis; format: functional, organism-based; conditions: ATCC 11775, 24 h
[7] = Cytotoxicity against human SW620 cells incubated for 24 hrs by MTT assay; format: toxicity, cell-based, SW-620
[8] = test system: Candida albicans; test: Antifungal activity against Candida albicans ATCC 10231 assessed as inhibition of fungal growth incubated for 48 hrs by spectrophotometer based analysis; format: functional, organism-based; conditions: ATCC 10231, 48 h

SMILES | EC50 [1] | EC50 [2] | IC50 [3] | EC50 [4] | IC50 at 24 h [5] | IC50 [6] | IC50 at 24 h [7] | IC50 [8]
CC[C@]1([C@H]2O[C@H]([C@@H]3O[C@](O)(CO)[C@@H](C)C[C@H]3C)C[C@H]2C)CC[C@@H]([C@@]2(C)CC[C@@]3(C[C@@H](O)[C@H](C)[C@H]([C@H](C)[C@H](OC)[C@H](C)C(=O)O)O3)O2)O1 | 0.4 µM | – | – | – | – | – | – | –
CC[C@H](C)[C@H]1O[C@]2(CC[C@@H]1C)C[C@@H]1C[C@@H](C/C=C(\C)[C@@H](O[C@H]3C[C@H](OC)[C@@H](O[C@H]4C[C@H](OC)[C@@H](O)[C@H](C)O4)[C@H](C)O3)[C@@H](C)/C=C/C=C3\CO[C@@H]4[C@H](O)C(C)=C[C@@H](C(=O)O1)[C@]34O)O2 | – | 0.001 µM | – | – | – | – | – | –
CC1=C(O)C(=O)c2c3sc(c2C1=O)C(=O)[C@@H](C)C[C@H](C)C/C(C)=C/[C@@H](C)CC[C@@H](O)[C@H](C)[C@H](O)[C@@H]3C | 19 µM | 47 µM | ≥ 3.6 µM | 2.1 µM | > 30 µM | > 30 µM | > 30 µM | > 30 µM
CC(=O)N[C@@H](CSC1=C2C3=C(C)C(=O)C(O)=C2[C@@H]2O[C@@H](CC[C@H](C)/C=C(\C)C[C@@H](C)C[C@H](C)[C@]1(O)O3)[C@H](C)[C@H](O)[C@@H]2C)C(=O)O | 22 µM | 39 µM | ≥ 3.6 µM | 3.6 µM | > 30 µM | > 30 µM | > 30 µM | > 30 µM
CC1=C2O[C@]3(O)C=C2C(=C(O)C1=O)[C@@H]1O[C@@H](CC[C@H](C)/C=C(\C)C[C@@H](C)C[C@@H]3C)[C@H](C)[C@H](O)[C@@H]1C | 18 µM | 49 µM | ≥ 3.6 µM | 4.1 µM | > 30 µM | > 30 µM | > 30 µM | > 30 µM
CC1=C(O)C(=O)C2=C(C1=O)[C@H](S(=O)(=O)O)C(=O)[C@@H](C)C[C@H](C)C/C(C)=C/[C@@H](C)CC[C@@H]1O[C@@H]2[C@@H](C)[C@@H](O)[C@H]1C | 44 µM | 44 µM | ≥ 3.6 µM | 21 µM | > 30 µM | > 30 µM | > 30 µM | > 30 µM
CC1=c2oc3c(O)c2=C(C(=O)C1=O)[C@@H]1O[C@@H](CC[C@H](C)/C=C(\C)C[C@@H](C)C[C@@H]3C)[C@H](C)[C@H](O)[C@@H]1C | 1.8 µM | 43 µM | ≥ 3.6 µM | 0.2 µM | > 30 µM | > 30 µM | > 30 µM | > 30 µM
C/C1=C\[C@@H](C)CC[C@@H]2O[C@@H](c3c(O)c(O)c(C)c4c3C(=O)[C@@](O)(O4)[C@@H](C)C[C@H](C)C1)[C@@H](C)[C@@H](O)[C@H]2C | 24 µM | 50 µM | ≥ 3.6 µM | 1.3 µM | > 30 µM | > 30 µM | > 30 µM | > 30 µM
CC(C)C[C@H](NC(=O)[C@H](C)NC(=O)CNC(=O)[C@@H](NC=O)C(C)C)C(=O)N[C@@H](C)C(=O)N[C@H](C(=O)N[C@H](C(=O)N[C@H](C(=O)N[C@@H](Cc1c[nH]c2ccccc12)C(=O)N[C@@H](CC(C)C)C(=O)N[C@@H](Cc1c[nH]c2ccccc12)C(=O)N[C@@H](CC(C)C)C(=O)N[C@@H](Cc1c[nH]c2ccccc12)C(=O)N[C@@H](CC(C)C)C(=O)N[C@@H](Cc1c[nH]c2ccccc12)C(=O)NCCO)C(C)C)C(C)C)C(C)C (For-VGALAVVVWLWLWLW-NHCH2CH2OH) | – | – | – | 0.1 µM | – | – | – | –
CSC1=C2C3=C(C)C(=O)C(O)=C2[C@@H]2O[C@@H](CC[C@H](C)/C=C(\C)C[C@@H](C)C[C@H](C)[C@]1(O)O3)[C@H](C)[C@H](O)[C@@H]2C | 1.4 µM | 30 µM | ≥ 3.6 µM | 0.3 µM | 13.5 µM | > 30 µM | 2.4 µM | > 30 µM
CC1=C2O[C@]3(O)C(N)=C2C(=C(O)C1=O)[C@@H]1O[C@@H](CC[C@H](C)/C=C(\C)C[C@@H](C)C[C@@H]3C)[C@H](C)[C@H](O)[C@@H]1C | 5 µM | 24 µM | ≥ 3.6 µM | 0.5 µM | > 30 µM | > 30 µM | > 30 µM | > 30 µM
